Test systems include A498; ACHN; CAKI-1; HCC 2998; HCT-15; HL-60; HT-29; Hs-578T; IGROV-1; LOX IMVI; MDA-N; Malme-3M; OVCAR-4; OVCAR-8; SF-268; SK-MEL-2; SK-MEL-5; SNB-75; UACC-62; HOP-62.
What all share (assay): growth of human tumour cells (NCI), 48 h

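1) Cells in 96-well plates. 2) Compound, 48 h, 5 concentrations. 3) Linear interpolation between surrounding doses. 4) Unreached endpoint = highest concentration. The concentration for 50% growth inhibition is given as GI50.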 Calls of active or inactive are those of the source. Rule as the data show it: active = GI50 up to about 1.1 µM and inactive = higher. Some results are limits rather than exact numbers.

In the case of `COc1ccc(OC)c2c1C(=O)C(Cl)=C(Cl)C2=O`, the GI50 with A498 was 20.3 µM (inactive); in the experiment with ACHN, 2.99 µM (inactive); with CAKI-1, 2.56 µM (inactive); in the experiment with HCC 2998 it was 17.3 µM (inactive); in the experiment with HCT-15, 3.3 µM; in the experiment with HL-60, 44.5 µM (inactive). Moreover, the GI50 in the experiment with HT-29 is 4.18 µM (inactive); in the experiment on Hs-578T, 2.65 µM (inactive); with IGROV-1, 15.5 µM (inactive); in the experiment with LOX IMVI, 2.07 µM (inactive); in the experiment on MDA-N it was 2.08 µM (inactive); in the experiment on Malme-3M, 2.25 µM (inactive). For the same compound, the GI50 was 3.54 µM (inactive) with OVCAR-4; 6.46 µM (inactive) with OVCAR-8; 13.5 µM (inactive) with SF-268; 3.06 µM (inactive) with SK-MEL-2; 5.64 µM (inactive) in the experiment on SK-MEL-5; 14.2 µM (inactive) in the experiment on SNB-75. The GI50 with UACC-62 was 2.58 µM (inactive).
Turning to `COCc1cc2c(s1)C(=O)C1=C(C2=O)C2(C=C(Br)C(=O)C(Br)=C2)CCN1`, the GI50 in the experiment with A498 was 15.7 µM (inactive); in the experiment on ACHN, 4.98 µM (inactive); with CAKI-1, 20 µM (inactive); in the experiment with HCC 2998, 11.1 µM (inactive); with HCT-15, 3.13 µM; with HL-60 it was 2.36 µM (inactive). Besides, the GI50 was 3.09 µM (inactive) in the experiment with HT-29; 9.53 µM (inactive) in the experiment on Hs-578T; 7.24 µM (inactive) with IGROV-1; 2.19 µM (inactive) in the experiment with LOX IMVI; 1.73 µM (inactive) in the experiment with MDA-N; 0.946 µM (active) in the experiment with Malme-3M. In addition, the GI50 with OVCAR-4 is 1.65 µM (inactive); in the experiment on OVCAR-8, 4.15 µM (inactive); in the experiment with SF-268, 4.86 µM (inactive); in the experiment with SK-MEL-2 it was 3.55 µM (inactive); with SK-MEL-5, 1.71 µM (inactive); with SNB-75 it was 14.6 µM (inactive). The GI50 in the experiment with UACC-62 was 1.56 µM (inactive).
As for `COC(=O)C1(Cc2ccc3c(c2)CCC3)Cc2ccccc2C1`, the GI50 is 32.8 µM (inactive) with A498; 41.9 µM (inactive) with ACHN; 36.2 µM (inactive) in the experiment on CAKI-1; 32 µM (inactive) in the experiment on HCC 2998; 25.8 µM with HCT-15; 17 µM (inactive) with HL-60. Besides, the GI50 with HOP-62 is 43.6 µM (inactive); in the experiment with HT-29 it was 22.2 µM (inactive); with Hs-578T it was 48.3 µM (inactive); in the experiment on IGROV-1, 48.3 µM (inactive); in the experiment on LOX IMVI, 14.7 µM (inactive); in the experiment with MDA-N it was 29.9 µM (inactive). Further, the GI50 is 27.4 µM (inactive) in the experiment with Malme-3M; 16.8 µM (inactive) with OVCAR-4; 50.6 µM (inactive) with OVCAR-8; 41.9 µM (inactive) with SF-268; 25.9 µM (inactive) in the experiment with SK-MEL-2; 55.7 µM (inactive) with SNB-75. Also, the GI50 in the experiment on UACC-62 is 36.1 µM (inactive).
`COC(=O)C(CCC1CC(OC)N(C(=O)OCc2ccccc2)C1)/N=C/c1ccccc1` (centres undefined): the GI50 is > 100 µM (inactive) with A498; > 100 µM (inactive) in the experiment with ACHN; > 100 µM (inactive) in the experiment on CAKI-1; 31.6 µM (inactive) in the experiment on HCC 2998; over 100 µM in the experiment on HCT-15; 47.8 µM (inactive) with HL-60. Moreover, the GI50 was > 100 µM (inactive) in the experiment with HOP-62; 60.5 µM (inactive) in the experiment on HT-29; > 100 µM (inactive) with Hs-578T; 87.9 µM (inactive) with IGROV-1; > 100 µM (inactive) in the experiment with LOX IMVI; 48 µM (inactive) in the experiment on MDA-N. Further, the GI50 in the experiment on OVCAR-4 was 62.1 µM (inactive); in the experiment on OVCAR-8, 96.2 µM (inactive); in the experiment with SF-268, > 100 µM (inactive); in the experiment on SK-MEL-2, 26.1 µM (inactive); in the experiment with SK-MEL-5, 29.2 µM (inactive); with SNB-75, > 100 µM (inactive). The GI50 in the experiment on UACC-62 is 84.1 µM (inactive).
Regarding `NC1C/C(=N\O)c2c(Cl)sc(Cl)c21` (centres undefined), the GI50 is 20.2 µM (inactive) in the experiment with A498; 21.8 µM (inactive) in the experiment on ACHN; 18 µM (inactive) in the experiment on CAKI-1; 92.7 µM (inactive) with HCC 2998; 15.6 µM in the experiment on HCT-15; 21.4 µM (inactive) with HL-60. The GI50 with HOP-62 was 21.5 µM (inactive); in the experiment with HT-29, 23.1 µM (inactive); in the experiment on Hs-578T, 59.3 µM (inactive); with IGROV-1 it was 17 µM (inactive); in the experiment on LOX IMVI, 3.11 µM (inactive); with MDA-N it was 18 µM (inactive). Further, the GI50 is 19.5 µM (inactive) with Malme-3M; 17.3 µM (inactive) in the experiment with OVCAR-4; 15.2 µM (inactive) with OVCAR-8; 29.4 µM (inactive) with SF-268; 19.7 µM (inactive) in the experiment on SK-MEL-2; 25.2 µM (inactive) with SNB-75.
On to `Nn1c(Nc2ccc(S(N)(=O)=O)cc2)nnc(/C=C/c2c(O)ccc3ccccc23)c1=O`, for which the GI50 in the experiment with A498 was 26.7 µM (inactive); in the experiment with ACHN, 30.3 µM (inactive); with CAKI-1 it was 22.9 µM (inactive); in the experiment with HCC 2998, 18.8 µM (inactive); with HCT-15 it was 12.8 µM; in the experiment on HL-60, 7.74 µM (inactive). In addition, the GI50 in the experiment on HOP-62 is 20.3 µM (inactive); in the experiment on HT-29, 19.9 µM (inactive); with Hs-578T, 31 µM (inactive); in the experiment with IGROV-1, 0.128 µM (active); with LOX IMVI, 12.9 µM (inactive); in the experiment with MDA-N it was 16.3 µM (inactive). Also, the GI50 was 15.7 µM (inactive) in the experiment with Malme-3M; 15.3 µM (inactive) in the experiment on OVCAR-4; 3.08 µM (inactive) in the experiment with OVCAR-8; 42.1 µM (inactive) in the experiment with SF-268; 39.8 µM (inactive) in the experiment with SK-MEL-2; 14.5 µM (inactive) in the experiment with SK-MEL-5. For the same compound, the GI50 in the experiment with UACC-62 is 18.7 µM (inactive).
As for `CN1N(c2ccccc2)C(=O)C2=NC=C(C(=O)c3ccccc3)C(=N)C21C` (centres undefined), the GI50 in the experiment on A498 was > 100 µM (inactive); in the experiment with ACHN it was > 100 µM (inactive); in the experiment with CAKI-1, > 100 µM (inactive); with HCC 2998, > 100 µM (inactive); in the experiment on HCT-15, over 100 µM; with HL-60, > 100 µM (inactive). The GI50 in the experiment on HOP-62, in the experiment on HT-29, in the experiment with Hs-578T, with IGROV-1, in the experiment on LOX IMVI and in the experiment on MDA-N was > 100 µM (inactive) throughout. In addition, the GI50 in the experiment with Malme-3M, with OVCAR-4, in the experiment with SF-268, in the experiment with SK-MEL-2, with SK-MEL-5 and in the experiment on UACC-62 was > 100 µM (inactive) in each case.
On to `N=C(N)C1CN(CCCCCCCCCCN2CC(C(=N)N)C(O)=NC2=O)C(=O)N=C1O` (centres undefined), for which the GI50 is > 10 µM (inactive) in the experiment on A498; > 10 µM (inactive) in the experiment on ACHN; > 10 µM (inactive) with CAKI-1; > 10 µM (inactive) in the experiment with HCC 2998; over 10 µM in the experiment on HCT-15; > 10 µM (inactive) in the experiment with HL-60. Besides, the GI50 in the experiment on HOP-62, in the experiment with HT-29, in the experiment on Hs-578T, in the experiment with IGROV-1, with LOX IMVI and in the experiment on MDA-N was > 10 µM (inactive) each time. Besides, the GI50 in the experiment on Malme-3M, in the experiment with OVCAR-4, in the experiment on OVCAR-8, with SK-MEL-2, in the experiment with SK-MEL-5 and in the experiment on SNB-75 was > 10 µM (inactive) throughout. For the same compound, the GI50 with UACC-62 was > 10 µM (inactive).
For the compound `COc1cc2c(cc1[N+](=O)[O-])C(=O)C(Br)(Br)CCC2`, the GI50 in the experiment with A498 is 15.3 µM (inactive); in the experiment on ACHN it was 2.11 µM (inactive); with CAKI-1, 2.92 µM (inactive); with HCC 2998, 14 µM (inactive); with HCT-15 it was 1.66 µM; with HL-60, 3.22 µM (inactive). Further, the GI50 in the experiment with HOP-62 is 3.38 µM (inactive); in the experiment with HT-29, 4.88 µM (inactive); with Hs-578T, 5.75 µM (inactive); in the experiment on IGROV-1 it was 0.955 µM (active); with LOX IMVI, 0.4 µM (active); in the experiment with MDA-N, 3.09 µM (inactive). For the same compound, the GI50 in the experiment with Malme-3M was 2.13 µM (inactive); with OVCAR-4 it was 4.62 µM (inactive); in the experiment with OVCAR-8, 2.25 µM (inactive); in the experiment on SF-268, 4.14 µM (inactive); in the experiment with SK-MEL-2 it was 2.13 µM (inactive); in the experiment on SK-MEL-5, 1.72 µM (inactive). Besides, the figures for the GI50 with SNB-75 and in the experiment with UACC-62 were 13.1 µM (inactive) and 3.43 µM (inactive), respectively.
With `CC(=O)O[C@H]1C(=O)[C@@]2(C)[C@H]([C@H](OC(=O)c3ccccc3)[C@]3(O)C[C@H](OC(=O)[C@H](O)[C@@H](NC(=O)CC(C)(C)C)c4ccccc4)C(C)=C1C3(C)C)C1(OC(C)=O)CO[C@@H]1C[C@@H]2O` (some centres undefined), the GI50 in the experiment on A498 is 0.303 µM (active); in the experiment on ACHN it was 0.0764 µM (active); with CAKI-1 it was 0.128 µM (active); in the experiment on HCC 2998, 0.00231 µM (active); with HCT-15 it was 0.223 µM; with HL-60, 0.00105 µM (active). Further, the GI50 in the experiment with HOP-62 was 0.00671 µM (active); in the experiment on HT-29 it was < 0.001 µM (active); in the experiment on Hs-578T, < 0.001 µM (active); in the experiment with IGROV-1, 0.00154 µM (active); in the experiment on LOX IMVI, 0.00175 µM (active); with MDA-N it was 0.1 µM (active). Moreover, the GI50 with OVCAR-4 was > 10 µM (inactive); in the experiment on OVCAR-8, 0.00283 µM (active); in the experiment with SF-268, 0.0023 µM (active); in the experiment with SK-MEL-2, 0.002 µM (active); in the experiment on SK-MEL-5, 0.00213 µM (active); in the experiment with SNB-75 it was < 0.001 µM (active). Also, the GI50 in the experiment on UACC-62 is 0.00158 µM (active).
